How the values were obtained:
humans = conditions: cited from earlier work
[1] = target: T1, human serotonin transporter (Homo sapiens, UniProt P31645); test: Serotonin transporter reuptake inhibition assay (prior art); format: cell-based; conditions: at 100 nM; across serotonin, norepinephrine, and dopamine transporters
T1 construct: expressed in transfected cells; host or cells: HEK-293
Protocol: Serotonin transporter reuptake inhibition was assayed using the method described by Gu H. et al., J Biol Chem., 1994, 269, p […], the entire contents of which are incorporated herein by reference. Recombinant HEK-293 cells with human serotonin transporter were plated. Test compounds were pre-incubated with cells (2×10^5/ml) in modified Tris-HEPES buffer at pH 7.1 for 20 min at 25° C. and were incubated for an additional 10 min after addition of 65 nM of [3H]Serotonin. Bound cells were filtered and counted to determine [3H]Serotonin uptake. Reduction of [3H]Serotonin uptake by 50 percent or more (≧50%) relative to 10 μM fluoxetine indicated significant inhibitory activity.

[2] = target: T1, human serotonin transporter; conditions: at 100 nM; cited from earlier work
[3] = target: T2, human recombinant norepinephrine transporter (Homo sapiens, UniProt P23975); conditions: at 100 nM; cited from earlier work
T2 construct: expressed in transfected cells; host or cells: MDCK

[4] = target: T3, human recombinant dopamine transporter (Homo sapiens, UniProt Q01959); conditions: at 100 nM; cited from earlier work
T3 construct: expressed in transfected cells; host or cells: CHO-K1
T3 sequence (Q01959 whole entry): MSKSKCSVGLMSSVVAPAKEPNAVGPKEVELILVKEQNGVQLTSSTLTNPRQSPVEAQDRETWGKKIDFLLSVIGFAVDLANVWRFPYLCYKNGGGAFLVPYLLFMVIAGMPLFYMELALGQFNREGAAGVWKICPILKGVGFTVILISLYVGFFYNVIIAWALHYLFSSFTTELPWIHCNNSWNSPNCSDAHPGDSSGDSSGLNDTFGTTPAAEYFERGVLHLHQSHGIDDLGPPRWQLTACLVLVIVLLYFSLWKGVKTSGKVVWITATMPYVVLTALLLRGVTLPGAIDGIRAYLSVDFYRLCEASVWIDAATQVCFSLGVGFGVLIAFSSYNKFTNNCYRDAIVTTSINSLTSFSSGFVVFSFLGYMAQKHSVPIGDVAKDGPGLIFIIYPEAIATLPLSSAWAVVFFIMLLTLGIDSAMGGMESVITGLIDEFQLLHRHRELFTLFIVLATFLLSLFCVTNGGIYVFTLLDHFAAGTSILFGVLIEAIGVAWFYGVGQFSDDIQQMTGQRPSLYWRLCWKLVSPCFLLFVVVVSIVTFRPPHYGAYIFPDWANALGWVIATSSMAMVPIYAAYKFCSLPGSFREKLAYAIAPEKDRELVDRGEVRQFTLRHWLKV

T1 sequence (P31645 whole entry): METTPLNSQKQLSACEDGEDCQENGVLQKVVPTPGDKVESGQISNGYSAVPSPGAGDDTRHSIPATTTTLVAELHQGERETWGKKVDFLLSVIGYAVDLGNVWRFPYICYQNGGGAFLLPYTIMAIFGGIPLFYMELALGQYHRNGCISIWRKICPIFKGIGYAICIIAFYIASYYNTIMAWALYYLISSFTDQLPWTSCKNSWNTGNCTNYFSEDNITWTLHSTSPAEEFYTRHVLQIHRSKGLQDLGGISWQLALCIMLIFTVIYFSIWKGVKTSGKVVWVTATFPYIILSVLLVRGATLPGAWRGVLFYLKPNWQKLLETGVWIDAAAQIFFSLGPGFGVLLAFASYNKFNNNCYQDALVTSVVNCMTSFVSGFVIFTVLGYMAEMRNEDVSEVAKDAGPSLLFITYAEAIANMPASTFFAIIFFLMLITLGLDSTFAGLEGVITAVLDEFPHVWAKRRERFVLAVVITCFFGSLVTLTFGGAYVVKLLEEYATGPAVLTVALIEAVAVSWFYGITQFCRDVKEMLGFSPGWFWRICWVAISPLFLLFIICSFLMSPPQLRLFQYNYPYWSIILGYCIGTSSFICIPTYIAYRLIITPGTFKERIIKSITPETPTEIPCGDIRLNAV
T2 sequence (P23975 whole entry): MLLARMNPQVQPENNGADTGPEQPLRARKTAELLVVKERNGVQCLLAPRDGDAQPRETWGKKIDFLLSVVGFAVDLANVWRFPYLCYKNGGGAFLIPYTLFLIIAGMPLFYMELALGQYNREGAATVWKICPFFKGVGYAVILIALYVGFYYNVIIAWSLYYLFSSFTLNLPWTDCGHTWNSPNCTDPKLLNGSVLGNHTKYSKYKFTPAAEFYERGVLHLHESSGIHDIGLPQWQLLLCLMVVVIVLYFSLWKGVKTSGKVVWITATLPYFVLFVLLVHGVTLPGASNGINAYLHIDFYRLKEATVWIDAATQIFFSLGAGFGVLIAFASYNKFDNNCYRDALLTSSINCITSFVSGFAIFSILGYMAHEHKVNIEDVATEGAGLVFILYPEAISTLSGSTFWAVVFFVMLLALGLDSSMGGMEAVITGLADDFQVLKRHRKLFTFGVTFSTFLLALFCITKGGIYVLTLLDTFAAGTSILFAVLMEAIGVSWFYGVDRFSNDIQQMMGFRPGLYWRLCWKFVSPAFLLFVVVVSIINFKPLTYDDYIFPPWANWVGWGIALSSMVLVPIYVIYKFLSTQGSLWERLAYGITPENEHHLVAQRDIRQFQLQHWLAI

| SMILES | positive subjective effects in humans (comparators) (humans) | subtractive difference of reuptake inhibition percentages, at most [1] | reuptake inhibition percentage, serotonin transporter [2] | reuptake inhibition percentage, norepinephrine transporter [3] | reuptake inhibition percentage, dopamine transporter [4] |
| --- | --- | --- | --- | --- | --- |
| CCOC[C@@H]1[C@@H](c2ccc(Cl)c(Cl)c2)C[C@@H]2CC[C@H]1N2C [tesofensine] | does not produce positive subjective effects |  |  |  |  |
| c1ccc2cc([C@H]([C@H]3CCCNC3)n3nccn3)ccc2c1 [Example Compound 14, (3S)-3-[(S)-naphthalen-2-yl(2H-1,2,3-triazol-2-yl)methyl]piperidine] |  | 24% | 76% | 70% | 52% |
| Clc1ccc([C@]23CNCC2C3)cc1Cl (stereo partly drawn) [amitifadine] | does not produce positive subjective effects |  |  |  |  |
